The molecules below were run against hMC4R (Homo sapiens (Human), UniProt P32245) (assay: In vitro binding affinity assay using hMC4R (radioligand competition binding, CHO cell membranes)). Settings: competition with [125I]-(Nle4, D-Phe7)-α-MSH 0.5 nM; Ki from IC50 by Cheng-Prusoff; read-out: Ki (nM) geometric mean.
Protocol: The binding affinity of test compounds at the α-melanocyte-stimulating hormone receptor (hMC4R) was assessed using a radioligand competition binding assay. Recombinant Chinese hamster ovaries (CHO) cells stably expressing hMC4R (PerkinElmer #ES-191-C) were used for competitive binding. hMC4R membranes were grown in Dulbecco's Modified Essential Medium and Ham's F-12 Medium (DMEM/F12), 10% heat inactivated fetal bovine serum (FBS), 0.4 mg/mL Geneticin and 2 mM L-glutamine. Cell membranes were bulked and frozen until the assay was performed.
Compounds were solubilized in 100% dimethyl sulfoxide (DMSO) to a concentration of 30 mM. A 10-point intermediate dilution series using half log dilutions was created in 100% DMSO with a top concentration of 0.03 mM. The serially diluted compounds were spotted as 1 μL/well, in 96-well Costar 3363 plates. The final compound range in the assay was 300 nM to 0.01 nM with a final DMSO concentration of 1%. Control wells, containing 1 μL of 2 mM ([…]) alpha-melanocyte stimulating hormone (α-MSH-Tocris #2584) was added to the non-specific binding wells and 1 μL 100% DMSO for the total binding control wells. This was followed by the addition of 80 μL of assay buffer [25 mM HEPES, 5 mM MgCl2, 2.5 mM CaCl2, 150 mM NaCl, Complete EDTA-free Protease Inhibitor Tablet (Thermo Scientific #11873580001) and 0.25% BSA]. […] The exact concentration of radioligand used for each experiment was determined by liquid scintillation counting and adjusted if necessary.
Frozen hMC4R cell membranes were thawed and Dounce homogenized. Homogenates were resuspended in assay buffer to a concentration of 2 μg per well. […] The plates were incubated for 2 hours at room temperature. Assay samples were then rapidly filtered through Unifilter-96 GF/B PEI coated filter plates using a filter plate harvester (PerkinElmer) and rinsed with ice-cold wash buffer [25 mM (4-(2-hydroxyethyl)-1-piperazineethanesulfonic acid (HEPES), 1 mM MgCl2, 2.5 mM CaCl2, and 500 mM NaCl]. Filter plates were dried overnight at room temperature. Plates were then bottom-sealed prior to the addition of 50 μL/well Ultima Gold XR scintillation fluid (PerkinElmer 6013111). Plates were then top-sealed, incubated for 60 minutes at room temperature and then the amount of radioactivity present was determined by liquid scintillation counting on a Microbeta Trilux (PerkinElmer #2450-0060).
The raw data (expressed as counts per minute) were analyzed using ActivityBase (IDBS Data Management Software). […] Equilibrium dissociation constant for inhibitor of ligand and receptor interaction (Ki) values were then calculated from the IC50 values using the Cheng-Prusoff equation: Ki=IC50/(1+([L]/Kd)), where [L] is the concentration of the radioligand used in the experiment and Kd is the affinity of the radioligand (determined in separate saturation experiments).

Chain of hMC4R (P32245 whole entry): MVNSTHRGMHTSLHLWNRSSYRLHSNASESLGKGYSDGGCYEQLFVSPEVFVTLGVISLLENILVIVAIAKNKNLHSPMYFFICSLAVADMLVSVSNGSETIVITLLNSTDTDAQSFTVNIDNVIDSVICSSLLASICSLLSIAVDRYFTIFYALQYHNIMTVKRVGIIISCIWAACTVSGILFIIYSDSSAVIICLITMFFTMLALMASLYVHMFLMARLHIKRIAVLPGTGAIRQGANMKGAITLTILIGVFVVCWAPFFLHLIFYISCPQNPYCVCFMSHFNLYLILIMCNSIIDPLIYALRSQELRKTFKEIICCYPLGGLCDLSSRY

Going from `COc1cc([C@@H](C)C(=O)N2CC[C@H](Nc3ccc(-c4cn(C)c(C(F)F)n4)c(C)n3)C2)cc(OC)n1` (single isomer, unassigned) [Example 12B] to `COc1cc([C@@H](C)C(=O)N2CC[C@H](Nc3ccc(-c4cn(C)c(C(F)F)n4)c(C)n3)C2)c(F)cn1` (single isomer, unassigned) [Example 38A], the Ki rises from 7.7 nM to 62 nM (8.1-fold).

Going from `COc1cccc([C@@H](C)C(=O)N2CC[C@H](Nc3ccc(-c4cn(C)c(C(C)(F)F)n4)c(C)n3)C2)c1` (single isomer, unassigned) [Example 14A] to `Cc1ccccc1[C@@H](C)C(=O)N1CC[C@H](Nc2ccc(-c3cn(C)c(C(C)(F)F)n3)c(C)n2)C1` (single isomer, unassigned) [Example 15A], the Ki falls from 530 nM to 150 nM (3.5-fold). The second binds more tightly here.

Compared with `Cc1ccccc1[C@@H](C)C(=O)N1CC[C@H](Nc2ccc(-c3cn(C)c(C(C)(F)F)n3)c(C)n2)C1` (single isomer, unassigned) [Example 15B], `COc1cc([C@@H](C)C(=O)N2CC[C@H](Nc3ccc(-c4cn(C)c(C(C)(F)F)n4)c(C)n3)C2)c(C)cn1` (single isomer, unassigned) [Example 16A] is higher in Ki: 0.83 nM for the first, over 220 nM for the second. The first binds more tightly here.

First: COc1ccc(C)c([C@@H](C)C(=O)N2CC[C@H](Nc3ccc(-c4cn(C)cn4)c(C)n3)C2)c1 (single isomer, unassigned) [Example 20A]
Second: COc1cc([C@@H](C)C(=O)N2CC[C@H](Nc3ccc(-c4cn(C)c(C(C)(F)F)n4)c(C)n3)C2)c(F)cn1 (single isomer, unassigned) [Example 21A]
The Ki of the first is 5.8-fold higher: 1100 nM for the first, 190 nM for the second.

Going from `COc1cc([C@@H](C)C(=O)N2CC[C@H](Nc3ccc(-c4nc(C(F)F)n(C)n4)c(C)n3)C2)c(Cl)cn1` (single isomer, unassigned) [Example 24A] to `COc1cc([C@@H](C)C(=O)N2CC[C@H](Nc3ccc(-c4nc(C(F)(F)F)n(C)n4)c(C)n3)C2)c(Cl)cn1` (single isomer, unassigned) [Example 25A], the Ki rises from 20 nM to 88 nM (4.4-fold). The first binds more tightly here.

Going from `COc1cc([C@@H](C)C(=O)N2CC[C@H](Nc3ccc(-c4nc(C(F)F)n(C)n4)c(C)n3)C2)ccn1` (single isomer, unassigned) [Example 33A] to `COc1cc([C@@H](C)C(=O)N2CC[C@H](Nc3ccc(-c4nc(C(F)F)n(C)n4)c(C)n3)C2)nc(C)n1` (single isomer, unassigned) [Example 41A], the Ki falls from 1100 nM to 240 nM (4.6-fold). The second binds more tightly here.

Compared with `COc1cc([C@](C)(F)C(=O)N2CC[C@H](Nc3ccc(-c4cn(C)c(C(F)F)n4)c(C)n3)C2)ccn1` (single isomer, unassigned) [Example 36B], `Cc1nc(N[C@H]2CCN(C(=O)Cc3ccc(F)c(F)c3)C2)ccc1-c1cn(C)c(C(F)F)n1` [Example 10, 1-[(3S)-3-({5-[2-(difluoromethyl)-1-methyl-1H-imidazol-4-yl]-6-methylpyridin-2-yl}amino)pyrrolidin-1-yl]-2-(3,4-difluorophenyl)ethan-1-one] is 14-fold lower in Ki: 4.3 nM for the first, 0.31 nM for the second. The second binds more tightly here.

First: COc1cc([C@@H](C)C(=O)N2CC[C@H](Nc3ccc(-c4nc(C(C)(F)F)n(C)n4)c(C)n3)C2)c(Cl)cn1 (single isomer, unassigned) [Example 37A]
Second: COc1cc(OC(F)F)cc([C@@H](C)C(=O)N2CC[C@H](Nc3ccc(-c4nc(C(C)(F)F)n(C)n4)c(C)n3)C2)c1 (single isomer, unassigned) [Example 40A]
The Ki of the first is 2.8-fold higher: 150 nM for the first, 54 nM for the second. The second binds more tightly here.

Going from `Cc1nc(N[C@@H]2CCN(C(=O)Cc3ccc(F)cc3)C2(C)C)ccc1-c1cn(C)cn1` [Example 3A, 1-[(3R)-2,2-dimethyl-3-{[6-methyl-5-(1-methyl-1H-imidazol-4-yl)pyridin-2-yl]amino}pyrrolidin-1-yl]-2-(4-fluorophenyl)ethan-1-one] to `Cc1nc(N[C@H]2CCN(C(=O)Cc3ccc(OC(F)(F)F)cc3)C2)ccc1-c1cn(C)c(C(F)F)n1` [Example 9, 1-[(3S)-3-({5-[2-(difluoromethyl)-1-methyl-1H-imidazol-4-yl]-6-methylpyridin-2-yl}amino)pyrrolidin-1-yl]-2-[4-(trifluoromethoxy)phenyl]ethan-1-one], the Ki falls from 520 nM to 0.46 nM (1100-fold).

Source: patent US20250129048A1, “MELANOCORTIN 4 RECEPTOR ANTAGONISTS AND USES THEREOF” (Pfizer Inc., priority 2021, published 2025)
